Test results from ChEMBL document CHEMBL3397013, “Target engagement in lead generation” (Bioorg Med Chem Lett, 2015).
pEC50, pIC50: −log10 of the molar value.

What was measured:
[1] = target: T1, Tyrosine-protein kinase ITK/TSK (Homo sapiens, UniProt Q08881); experiment: Inhibition of human ITK
T1 sequence (Q08881 whole entry): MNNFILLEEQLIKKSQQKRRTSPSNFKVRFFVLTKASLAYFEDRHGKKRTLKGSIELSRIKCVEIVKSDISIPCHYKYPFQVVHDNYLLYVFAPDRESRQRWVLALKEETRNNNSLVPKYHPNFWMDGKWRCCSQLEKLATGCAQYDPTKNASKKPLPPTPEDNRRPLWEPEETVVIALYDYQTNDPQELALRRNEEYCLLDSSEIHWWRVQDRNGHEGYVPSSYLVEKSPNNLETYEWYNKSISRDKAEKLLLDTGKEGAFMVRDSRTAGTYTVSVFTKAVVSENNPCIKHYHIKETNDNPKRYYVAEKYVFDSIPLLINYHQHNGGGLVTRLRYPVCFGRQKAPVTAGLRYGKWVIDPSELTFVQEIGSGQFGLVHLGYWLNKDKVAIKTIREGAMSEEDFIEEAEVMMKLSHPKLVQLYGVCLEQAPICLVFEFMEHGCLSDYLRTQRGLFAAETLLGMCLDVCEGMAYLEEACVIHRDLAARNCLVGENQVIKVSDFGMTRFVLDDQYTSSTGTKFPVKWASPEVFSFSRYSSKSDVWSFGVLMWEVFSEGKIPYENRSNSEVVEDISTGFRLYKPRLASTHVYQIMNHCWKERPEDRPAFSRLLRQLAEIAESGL

[2] = target: T2, Tyrosine-protein kinase ITK/TSK (Homo sapiens) (UniProt Q08881); experiment: Inhibition of human ITK assessed as ratio of Kinact to Ki
T2 sequence (whole entry): T1 sequence (Q08881 whole entry)

Lung [3] = experiment: Drug level in rat lung at 2.3 mg/kg dosed via inhalation measured post perfusion; format: ADME, organism-based; set-up: dose 2.3 mg/kg; details: in vivo, inhaled_or_intranasal, read-out: Drug uptake
Lung [4] = experiment: Drug level in rat lung at 2.3 mg/kg dosed via inhalation measured post cell suspension; format: ADME, organism-based; set-up: dose 2.3 mg/kg; details: in vivo, inhaled_or_intranasal, read-out: Drug uptake
Rattus norvegicus [5] = experiment: Binding affinity to 5HT1A receptor in Sprague-Dawley rat at 0.3 to 10 mg/kg, po after 2 to 8 hrs by PET imaging method; format: functional, organism-based; set-up: route oral
Rattus norvegicus [6] = experiment: Induction of prolongation of micturition interval in orally dosed Sprague-Dawley rat model of 8-OH-DPAT induced overactive bladder by cystometric study; format: functional; details: po, read-out: MED
[7] = target: Tyrosine-protein kinase BTK (Homo sapiens, UniProt Q06187); experiment: Inhibition of BTK (unknown origin) using ATP and Y5 Sox15 substrate mix incubated for 30 mins by fluorescence based assay
[8] = target: cAMP and cAMP-inhibited cGMP 3',5'-cyclic phosphodiesterase 10A (Homo sapiens, UniProt Q9Y233); experiment: Inhibition of human PDE10A
[9] = Inhibition of human PDE isoforms

Tyrosine-protein kinase BTK, sequence (Q06187 whole entry): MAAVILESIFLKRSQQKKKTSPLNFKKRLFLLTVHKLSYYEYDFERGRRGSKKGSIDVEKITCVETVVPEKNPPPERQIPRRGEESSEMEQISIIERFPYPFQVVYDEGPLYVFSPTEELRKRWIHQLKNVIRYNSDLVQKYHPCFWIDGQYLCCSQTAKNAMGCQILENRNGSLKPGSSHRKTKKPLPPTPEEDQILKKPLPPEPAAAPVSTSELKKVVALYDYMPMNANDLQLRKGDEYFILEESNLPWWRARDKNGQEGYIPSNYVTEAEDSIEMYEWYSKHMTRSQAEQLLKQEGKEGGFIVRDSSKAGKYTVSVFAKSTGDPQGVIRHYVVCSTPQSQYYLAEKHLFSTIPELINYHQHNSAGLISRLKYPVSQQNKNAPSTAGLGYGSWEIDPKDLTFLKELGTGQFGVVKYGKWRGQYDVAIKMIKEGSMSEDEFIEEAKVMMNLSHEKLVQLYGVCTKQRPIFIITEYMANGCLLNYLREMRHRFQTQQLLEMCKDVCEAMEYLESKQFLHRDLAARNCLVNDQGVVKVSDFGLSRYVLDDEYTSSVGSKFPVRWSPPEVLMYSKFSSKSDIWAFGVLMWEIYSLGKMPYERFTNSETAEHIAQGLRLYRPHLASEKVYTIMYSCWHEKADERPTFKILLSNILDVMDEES
cAMP and cAMP-inhibited cGMP 3',5'-cyclic phosphodiesterase 10A, sequence (Q9Y233 whole entry, canonical isoform): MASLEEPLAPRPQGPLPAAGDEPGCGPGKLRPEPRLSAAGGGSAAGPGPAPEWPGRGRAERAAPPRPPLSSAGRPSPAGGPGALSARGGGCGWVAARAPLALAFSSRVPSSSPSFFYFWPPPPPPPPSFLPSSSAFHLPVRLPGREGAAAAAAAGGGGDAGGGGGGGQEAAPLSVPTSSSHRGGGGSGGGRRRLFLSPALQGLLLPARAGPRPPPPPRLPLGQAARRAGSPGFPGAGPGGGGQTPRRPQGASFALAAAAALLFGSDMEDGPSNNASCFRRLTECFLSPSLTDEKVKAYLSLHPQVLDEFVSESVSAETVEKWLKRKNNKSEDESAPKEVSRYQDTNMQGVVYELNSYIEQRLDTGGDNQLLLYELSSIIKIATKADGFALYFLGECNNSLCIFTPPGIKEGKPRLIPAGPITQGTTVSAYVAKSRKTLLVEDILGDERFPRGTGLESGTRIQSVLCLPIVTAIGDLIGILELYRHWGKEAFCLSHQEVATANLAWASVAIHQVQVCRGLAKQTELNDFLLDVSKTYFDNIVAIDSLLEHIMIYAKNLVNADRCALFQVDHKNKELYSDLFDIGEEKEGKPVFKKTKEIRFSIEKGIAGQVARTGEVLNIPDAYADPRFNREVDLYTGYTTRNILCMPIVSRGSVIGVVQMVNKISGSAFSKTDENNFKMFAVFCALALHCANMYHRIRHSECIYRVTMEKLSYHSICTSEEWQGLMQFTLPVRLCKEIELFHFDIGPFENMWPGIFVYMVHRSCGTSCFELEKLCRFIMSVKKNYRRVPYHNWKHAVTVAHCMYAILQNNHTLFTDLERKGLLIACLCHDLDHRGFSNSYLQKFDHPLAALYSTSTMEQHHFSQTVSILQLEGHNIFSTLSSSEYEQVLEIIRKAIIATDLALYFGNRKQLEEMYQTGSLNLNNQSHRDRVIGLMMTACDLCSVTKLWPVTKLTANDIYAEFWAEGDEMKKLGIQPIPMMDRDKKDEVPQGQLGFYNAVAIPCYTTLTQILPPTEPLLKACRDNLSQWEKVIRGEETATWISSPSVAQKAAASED

C=CC(=O)N1CC[C@H](Nc2cc(CN[C@@H](C)C(C)(C)C)cc(Nc3nc4cccnc4s3)n2)C1
pIC50 [1]: 8.30
Ratio [2]: 520000 M⁻¹ s⁻¹
concentration (Lung [3]): 6 µM
concentration (Lung [4]): 8 nM

CNC(=O)c1ccc2ccn(C3CCN(CCc4c(OC)ccc5c4OC(C)(C)CC5=O)CC3)c2c1.O=C(O)/C=C/C(=O)O
pEC50 (Rattus norvegicus [5]): 8.27
minimal effective dose (Rattus norvegicus [6]): 0.1 mg/kg

C=CC(=O)Nc1cccc(N(C)c2nc(Nc3cccc(OCCCN(C)C(=O)CCCC(=O)NCCCOCCOCCOCCCNC(=O)CCCC[C@H]4SC[C@H]5NC(=O)N[C@H]54)c3)ncc2C)c1
pIC50 [7]: 9.30

Cc1nc2ccccc2nc1-c1cc2nc(N3CC[C@@H](F)C3)cc(N([11CH3])C3CCOCC3)n2n1
pIC50 [8]: 10.22
pIC50 [9]: < 6.00
